Data on 8 substances can be found in patent publication US20150352197A1, “PEPTIDE” (Apitope International NV, priority 2013, published 2015).

Ends that are not written are not given here.

One assay has as its target T1, HLA-DRB1*1501 (Homo sapiens, UniProt P01903+P01911).
T1 construct: human cell line expressing HLA-DRB1*1501; host or cells: MGAR cells (human cell line), fixed with paraformaldehyde or fresh
In words: Antigen processing independent presentation system: fixed MGAR cells plus peptide-specific T cell hybridomas, IL-2 ELISA. Type of assay: cell-based. On the procedure:
100 μl of hybridoma cells were cultured with 5×10^4 MGAR cells (human cell line expressing HLA-DRB1*1501, Health Protection Agency Culture Collections, Salisbury, UK) in wells of a flat bottom 96-well plate. 50 μl complete RPMI-10% FCS containing a long peptide at 10 μg/ml or the same volume of DMSO (diluent of the peptide) was added to the wells. After 48 h, 120 μl of supernatant was removed and a mouse IL-2 ELISA (Enzyme-linked immunosorbent assay) performed. Clones that produce IL-2 recognise the antigen used. The remaining supernatants were frozen at −20° C.
96 well plates (Immunosorb 96 well, Nunc, Roskilde, Denmark) were coated with 50 μl/well purified rat anti-mouse IL-2 capture Ab (BD Biosciences, Oxford, UK), diluted 1:250 in carbonate buffer (3.56 g Na2CO3 (Sigma-Aldrich, Saint Louis, Mass.), 8.4 g NaHCO3 (Fisher Scientific, Loughborough, UK), 1 L elgastat water; pH 9.5) and incubated overnight at 4° C. After 2 washes in PBS-Tween (1 L 10× PBS, 9 L distilled water, 0.5 ml Tween (Sigma-Aldrich, Saint Louis, Mass.)), […] of PBS-10% FCS were added and incubated at RT for 1 hour. After 3 washes in PBS-Tween, 50 μl of supernatant or IL-2 standard (BD Biosciences, Oxford, UK) dilutions (in PBS-10% FCS) were added to the wells and incubated 2 h at RT. After 4 washes in PBS-Tween (Sigma-Aldrich, Saint Louis, Mass.), 50 μl/well of biotin rat anti-mouse IL2 (BD Biosciences, Oxford, UK) diluted 1:1000 in 10% FCS/PBS was added and incubated for 1 h at RT. After 4 washes, 50 μl/well extravidin peroxidase (Sigma-Aldrich, Saint Louis, Mass.) diluted 1:1000 in PBS was added and incubated 30 min at RT. After 4 washes, […] of substrate solution* was added and incubated at RT until a clear colour change was seen. The reaction was stopped using 50 μl/well 2M H2SO4 (BDH, Poole, UK) and plates were read at 450 nm (550 nm ref) with an ELISA reader (SpectraMax Pro, Molecular Device, Sunnyvale, Calif.). *Substrate solution: 10 ml phosphate-citrate buffer 0.1M (5.14 ml 0.2M Na2HPO4 (BDH, Poole, UK), 4.86 ml 0.1M citrate (Sigma), 10 ml elgastat water), 0.1 ml of TMB (defrost 3,3′,5,5′-Tetramethylbenzidine at 10 mg/ml in DMSO, Sigma-Aldrich, Saint Louis, Mass.), 6 μl of hydrogen peroxide (Sigma-Aldrich, Saint Louis, Mass.).
The specific clones were then tested for their responses to the 15-mer peptides (POP-1 to POP-12) with fixed or not fixed MGAR cells. For this purpose, 1×10^5 cells from the individual clones are cultured with 5×10^4 fixed or fresh MGAR cells in a 96-well flat bottom plate. […] After 48 h in culture, 120 μl of supernatant was harvested and analysed by ELISA to assess IL-2 production.

Assay [1] concerns splenocytes (SPL) and lymph node cells (LNC). The assay can be described thus: Ex vivo tolerance assay: apitope pre-treatment, priming with long peptide, then recall proliferation and cytokine production. The format is in vivo, HLA-DRB1*1501 mice.
In assay [2] the test system is splenocytes and lymph node cells. The assay can be described thus: In vitro proliferation assay for immunogenicity of the long peptides. Conditions: HLA-DRB1*1501 mice, FIG. 1. Type of assay: cell-based, HLA-DRB1*1501 transgenic mice.
The subject of assay [3] is HLA-DRB1*1501 transgenic mice. The assay can be described thus: EAE induction by priming with long peptide. The format is in vivo. Conditions: long peptides, HLA-DRB1*1501 mice, FIG. 1. On the procedure:
For each peptide, in silico studies were carried out to predict DR2 (HLA-DRB1*1501) binding capacity, and in vitro (proliferation assay) and in vivo (EAE induction) studies were carried out to investigate response.
HLA-DRB1*1501 transgenic mice were injected with 100 μl containing 100 μg of long peptide in PBS (Lonza, Verviers, Belgium) or PBS alone, and with Complete Freund Adjuvant (CFA; BD Difco, Oxford, UK) with 4 mg/ml Mycobacterium tuberculosis (MTb, BD Difco, Oxford, UK) subcutaneously at the base of the tail. For EAE study, the mice were injected with 200 ng of pertussis toxin at the same time as the priming and 2 days after. The mice were then followed, weight and scored for disease every day.

Where [4] appears, read: 15-mers spanning HEAL-26, HEAL-26 specific hybridomas from DR2 mice.
[5] abbreviates: LNC (lymph node) of pre-treated mice.
Setting [6] is: SPL (spleen) of pre-treated mice.

Take “EKLIETYFSKNYQDY [POP-8, 15-mer overlapping peptide spanning HEAL-26]”: the identification as apitope result with HLA-DRB1*1501 (setting [4]) is “identified as apitopes”.

With “GVLPWNAFPGKVCGSNLLSICKTAEFQM-NH2 (cysteine pairing not given here) [GVLP-28, long peptide from a hydrophilic domain of PLP, residues 207-234]”, in assay [1] (LNC of pre-treated mice), the IL-17 production result is “significant inhibition” and the “stimulation index of LNC proliferation” value was “decrease”. For the same substance, in assay [2], the “response in the in vitro study (proliferation assay)” value (“response in the in vitro study” for short) is listed as “respond”. Moreover, the “response in the in vivo study (EAE induction)” value (shortened to “response in the in vivo study”) in assay [3] is reported as “respond”.

Regarding “HEALTGTEKLIETYFSKNYQDYEYLI-NH2 [HEAL-26, long peptide from a hydrophilic domain of PLP, residues 36-61]”, the “proliferation (3H-thymidine incorporation)” value in assay [1] (setting [5]) and in assay [1] (setting [6]) was “decrease” throughout. The IL-17 production result in assay [1] (LNC of pre-treated mice) and in assay [1] (SPL of pre-treated mice) was “decrease” throughout. Also, the IL-5 production result in assay [1] (pre-treated mice, cell population not specified) was “increase”. Moreover, in assay [2], the “response in the in vitro study” value was “respond”. Also, the “response in the in vivo study” value in assay [3] is listed as “respond”.

In the case of “LTGTEKLIETYFSKN [POP-4, 15-mer overlapping peptide spanning HEAL-26]”, the identification as apitope result in the assay with HLA-DRB1*1501 (setting [4]) is “identified as apitopes”. In assay [1] (setting [5]), the “proliferation (3H-thymidine incorporation)” value is “inhibition”. Besides, in assay [1] (LNC of pre-treated mice), the IFN-γ production result was “significant decrease”, the IL-17 production result was “significant decrease” and the TNF-α production entry is reported as “significant decrease”. The “proliferation (3H-thymidine incorporation)” value in assay [1] (setting [6]) is given as “inhibition”. In addition, in assay [1] (SPL of pre-treated mice), the IFN-γ production entry is reported as “significant decrease”, the IL-17 production entry was “significant decrease” and the TNF-α production result was “significant decrease”.

Take “TEKLIETYFSKNYQD [POP-7, 15-mer overlapping peptide spanning HEAL-26]”: the identification as apitope result in the assay with HLA-DRB1*1501 (setting [4]) is “identified as apitopes”.

Consider “TTCQSIAFPSKTSAS [POP-15, 15-mer overlapping peptide spanning TWTT-28]”, for which, in assay [1] (setting [5]), the “proliferation (3H-thymidine incorporation)” value was “significant inhibition”. Further, in assay [1] (LNC of pre-treated mice), the GM-CSF production entry was “significant inhibition”, the IFN-γ production entry is given as “significant inhibition”, the IL-17 production entry is given as “significant inhibition” and the cytokine production entry is “inhibit very well”. For the same substance, in assay [1] (setting [6]), the “proliferation (3H-thymidine incorporation)” value is listed as “no difference”. In addition, in assay [1] (SPL of pre-treated mice), the GM-CSF production result is “less”, the IFN-γ production entry was “less”, the IL-17 production entry is “less” and the cytokine production entry is recorded as “inhibit very well”.

With “TWTTCQSIAFPSKTSASIGSLCADARMY-NH2 (cysteine pairing not given here) [TWTT-28, long peptide from a hydrophilic domain of PLP, residues 179-206]”, the “proliferation (3H-thymidine incorporation)” value in assay [1] (setting [5]) and in assay [1] (setting [6]) was “inhibit very well” throughout. Also, the cytokine production entry in assay [1] (LNC of pre-treated mice) and in assay [1] (SPL of pre-treated mice) was “inhibit very well” each time. Besides, the “response in the in vitro study” value in assay [2] is given as “respond”. In addition, the “response in the in vivo study” value in assay [3] was “respond”.

For “VLPWNAFPGKVCGSN [POP-22, 15-mer overlapping peptide spanning GVLP-28]”, in the assay with HLA-DRB1*1501 (15-mers spanning GVLP-28, TWTT-28 specific hybridomas from DR2 mice (so in the source)), the identification as apitope entry is “identified as an apitope”. In addition, in assay [1] (LNC of pre-treated mice), the IL-17 production result was “significant inhibition” and the “stimulation index of LNC proliferation” value was “decrease”.
